Experimental data reported in patent US20190083521A1, “COMBINATION THERAPY FOR TREATING CANCER” (Epizyme, Inc., priority 2014, published 2019).
Where two headings read alike, the source gives them in different places.

Assays:
KOPM-88 (MLL-PTD) cells = assay: Combination proliferation assay with Compound A2 (Chou-Talalay CI); format: cell-based, human
Procedure: (§1) Graphs representing values of combination index (CI) versus Fractional effect (Fa) known as Fa-CI plots were generated and synergy was evaluated.
(§2) Viability was determined using CellTiter-Glo® (Promega).

EOL-1 (MLL-PTD) cells = assay: as above; format: cell-based, human
Procedure: as §1, §2

[1] = tested on: SKM-1 (non-MLL-rearranged AML) cells; assay: Combination proliferation assay with Compound A2 (CellTiter-Glo, Chou-Talalay CI); format: cell-based, human
Procedure: as §1, §2
MV4-11 cells were maintained in IMDM supplemented with 10% fetal bovine serum. MOLM-13 and SKM-1 cells were maintained in Roswell Park Memorial Institute medium (RPMI) supplemented with 10% fetal bovine serum. They were cultured in flasks or plates in a humidified 5% CO2 atmosphere.
Proliferation studies were performed using MOLM-13, MV4-11 and SKM-1 cell lines in vitro to evaluate the cancer cell killing effect of a combination of two agents together on cell growth. Initial proliferation studies were performed to determine the IC50 values of a given compound in each cell line. The cell counts were measured by ATP quantitation using the Promega Cell Titer Glo kit and luminescence values correspond to the amount of ATP in a given well.
Compounds evaluated for synergy in the co-treatment phase were tested in a range which was bracketed around the IC50's. The compounds were plated to a 96 well plate in a matrix format which includes increasing concentrations of each drug in the combination in a constant ratio, in addition to the effect of each compound alone in the study. Cells were seeded and grown in the log-linear phase for 3 or 7 days in the cotreatment phase. Maximum and minimum inhibition (DMSO alone) controls were used in each plate to calculate fraction affected (Fa) of a test well. DMSO concentration was kept at 0.1% v/v. The drug combination analysis was performed utilizing the Chou-Talalay method. Synergy was determined using the software package Calcusyn by Biosoft. The combination index (CI) is the term used to describe the level of synergy or antagonism in a given test system. A combination index less than one indicates synergy, and a CI greater than one indicates antagonism.
The drug combination analysis was performed using the Chou-Talalay method. Graphs representing values of combination index (CI) versus Fractional effect (Fa) known as Fa-CI plots were generated and synergy was evaluated.

MOLM-13 (MLL-AF9) cells [2] = assay: as above; format: cell-based, human
How it was run: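 Viability by CellTiter-Glo ATP luminescence; fraction affected versus DMSO controls, combination index by Chou-Talalay (CI <1 synergy, >1 antagonism).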

MV4-11 (MLL-AF4) cells = assay: as above; format: cell-based, human
How it was run: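 Viability by CellTiter-Glo ATP luminescence; fraction affected versus DMSO controls; combination index by Chou-Talalay method (CI <1 synergy, >1 antagonism).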

ML-2 (MLL-AF6) cells = assay: Example 7 retest: EPZ-5676 pre-treatment, second compound 72 h, Cell Titer Glo, growth inhibition; format: cell-based; design: GI100: unit not given here; conditions: ML-2 (MLL-AF6), KRAS A146T (het)
RS4-11 (MLL-AF4) cells = assay: as above; format: cell-based; design: GI100: unit not given here; conditions: RS4-11 (MLL-AF4), Ras mutation status: None known, second compound, 72 h
SKM-1 (non-MLLr) cells [3] = assay: as above; format: cell-based, human; design: GI100: unit not given here; conditions: SKM-1 (non-MLLr)
MOLM-13 (MLL-AF9) cells [4] = assay: as above; format: cell-based, human; design: GI100: unit not given here; conditions: MOLM-13 (MLL-AF9)
[5] = tested on: OCI-AML-4 (MLL-ENL) cells; assay: as above; format: cell-based; conditions: OCI-AML-4 (MLL-ENL)
SKM-1 cells = assay: Example 6 combination screen: 300 nM EPZ-5676 pre-treatment, second compound 72 h, ATPLite, IC50 shift; format: cell-based, human; conditions: SKM-1 cells; 300 nM EPZ-5676 pre-treatment (4 + 3 days) vs DMSO, then 2nd compound 72 h; ATPLite; IC50 shift of 2nd compound
Procedure: Cells were then equilibrated in incubators for 24 hours before treatment with a second compound. Treated assay plates were incubated with a second compound for 72 hours. After this time, plates were developed for endpoint analysis using ATPLite to measure ATP content, which is used as an indicator of cell viability.
“N/D” means that IC50 of the second compound could not be determined for both conditions.

[6] = tested on: OCI-AML-4 (MLL-ENL) cells; assay: Example 7 primary screen: 300 nM EPZ-5676 pre-treatment, second compound 72 h, ATPLite, GI100 shift; format: cell-based; conditions: OCI-AML-4 (MLL-ENL); 300 nM EPZ-5676 pre-treatment vs DMSO
Procedure: (§3) Cells were split using EPZ-5676 or DMSO containing growth media and further incubated for an additional 3-day pre-treatment time. Cells were finally seeded in growth media containing EPZ-5676 or DMSO in 384-well plates at 500 cell/well density. Cells were then equilibrated in incubators for 24 hours before treatment with a second compound. Treated assay plates were incubated with a second compound for 72 hours. After this time, plates were developed for endpoint analysis using ATPLite to measure ATP content, which is used as an indicator of cell viability.
(§4) “N/D” means the GI100 of the second compound could not be determined for both conditions and “-” means not tested.
(§5) Growth Inhibition (GI) as a measure of cell viability: The cell viability of vehicle was measured at the time of dosing the second agent (T0) and after seventy-two hours (T72). A GI reading of 0% represents no growth inhibition—cells treated with test compound as compared to T72 vehicle signals were measured. […] A GI 200% represents complete death of all cells in the culture well. Compounds reaching an activity plateau of GI 200% are considered cytotoxic. GI is calculated by applying the following test and equation: […]

SKM-1 (non-MLLr) cells [7] = assay: as above; format: cell-based, human; conditions: SKM-1 (non-MLLr); 300 nM EPZ-5676 pre-treatment vs DMSO
Procedure: as §3, §4, §5

MOLM-13 (MLL-AF9) cells [8] = assay: as above; format: cell-based, human; conditions: MOLM-13 (MLL-AF9); 300 nM EPZ-5676 pre-treatment vs DMSO
Procedure: as §3, §4, §5

THP-1 (MLL-AF9) cells = assay: Example 7 retest: EPZ-5676 pre-treatment, second compound 72 h, Cell Titer Glo, growth inhibition; format: cell-based; design: GI100: unit not given here; conditions: NRAS G12D
[9] = 300 nM EPZ-5676 pre-treatment vs DMSO
[10] = KRAS K117N (homo), second compound, 72 h

For `Nc1ncn([C@@H]2O[C@H](CO)[C@@H](O)[C@H]2O)c(=O)n1` [Azacitidine], the “Combination effect with Compound A2 (Table 3)” value (“Combination effect … (Table 3)” below) (KOPM-88 (MLL-PTD) cells; KOPM-88 (MLL-PTD)) was “Synergy (Drug synergy was statistically defined by CI values less than 1)”, the “Combination effect … (Table 3)” value (EOL-1 (MLL-PTD) cells; EOL-1 (MLL-PTD)) was “Synergy (Drug synergy was statistically defined by CI values less than 1)” and the “Effect of Compound A2 on antiproliferative activity of the second agent” value ([1]; SKM-1 non-MLL-rearranged (Example 5)) was “no impact”. For the same compound, the “Combination effect with Compound A2 (Table 4)” value (MOLM-13 (MLL-AF9) cells [2]; MOLM-13 (MLL-AF9), 7 Day Cotreatment Model) was “Strong Synergy”, the “Combination effect with Compound A2 (Table 2)” value (“Combination effect … (Table 2)” below) (MOLM-13 (MLL-AF9) cells [2]; MOLM-13 MLL-AF9) was “Synergy (Drug synergy was statistically defined by CI values less than 1)” and the “Combination effect with Compound A2” value (MV4-11 (MLL-AF4) cells; MV4-11, 7 Day Cotreatment (Example 1)) was “Synergy (A combination index less than one indicates synergy)”. For the same compound, the “Combination effect … (Table 2)” value (MV4-11 (MLL-AF4) cells; MV4-11 MLL-AF4) was “Synergy (Drug synergy was statistically defined by CI values less than 1)”.
`COc1cccc2c1C(=O)c1c(O)c3c(c(O)c1C2=O)C[C@@](O)(C(C)=O)C[C@@H]3O[C@H]1C[C@H](N)[C@H](O)[C@H](C)O1` [Daunorubicin] was tested, and the “Combination effect … (Table 3)” value (KOPM-88 (MLL-PTD) cells) was “Synergy (key: Synergy: Drug synergy was statistically defined by CI values less than 1; Antagonistic: antagonism by CI>1; Additive: additive effect by CI equal to 1)”, the “Combination effect … (Table 3)” value (EOL-1 (MLL-PTD) cells) was “Synergy (key: Synergy: Drug synergy was statistically defined by CI values less than 1; Antagonistic: antagonism by CI>1; Additive: additive effect by CI equal to 1)” and the “Combination effect … (Table 2)” value [1] was “did not act synergistically”. The “Effect of Compound A2 on antiproliferative activity of the second agent” value [1] was “did not affect”, the “Antiproliferative combination effect after Compound A2 washout” value (MOLM-13 (MLL-AF9) cells [2]) was “maintained” and the “Antiproliferative combination effect with Compound A2” value (MOLM-13 (MLL-AF9) cells [2]) was “synergistic”. The “Antiproliferative combination effect after Compound A2 washout” value (MV4-11 (MLL-AF4) cells) was “maintained” and the “Antiproliferative combination effect with Compound A2” value (MV4-11 (MLL-AF4) cells) was “synergistic”.
`O=C(Nc1ccc2[nH]nc(-c3ccncc3)c2c1)[C@@H]1CCN(CC(=O)N2CCN(c3ccc(-c4ncccn4)cc3)CC2)C1` [SCH772984] was tested, and the “Result (combination with EPZ-5676)” value (ML-2 (MLL-AF6) cells) was “Synergy (considered synergistic if the GI100 (Growth inhibition 100) value of the second compound decreased by 2-fold or more when EPZ-5676 was added as compared to the DMSO control)”, the GI50 (ML-2 (MLL-AF6) cells; second compound, 72 h) was 0.04 µM and the GI100 (ML-2 (MLL-AF6) cells; second compound, 72 h) was 0.26. The GI50 (RS4-11 (MLL-AF4) cells; Homo sapiens) was 7.24 µM, the GI100 (RS4-11 (MLL-AF4) cells) was greater than 10 and the “Combination result with EPZ-5676, Retest” value (SKM-1 (non-MLLr) cells [3]; [9]) was “Synergy (considered synergistic if the GI100 (Growth inhibition 100) value of the second compound decreased by 2-fold or more when EPZ-5676 was added as compared to the DMSO control)”. The “Result (combination with EPZ-5676)” value (SKM-1 (non-MLLr) cells [3]; KRAS K117N (homo)) was “Synergy (considered synergistic if the GI100 (Growth inhibition 100) value of the second compound decreased by 2-fold or more when EPZ-5676 was added as compared to the DMSO control)”, the GI50 (SKM-1 (non-MLLr) cells [3]; [10]) was 0.02 µM and the GI100 (SKM-1 (non-MLLr) cells [3]; [10]) was 0.086. The GI50 (MOLM-13 (MLL-AF9) cells [4]; Homo sapiens, Ras mutation status: None known, second compound, 72 h) was 0.21 µM, the “Combination result with EPZ-5676, Retest” value (MOLM-13 (MLL-AF9) cells [4]; 150 nM EPZ-5676 pre-treatment vs DMSO) was “Synergy (considered synergistic if the GI100 (Growth inhibition 100) value of the second compound decreased by 2-fold or more when EPZ-5676 was added as compared to the DMSO control)” and the “Result (combination with EPZ-5676)” value (MOLM-13 (MLL-AF9) cells [4]; Ras mutation status: None known) was “Synergy (considered synergistic if the GI100 (Growth inhibition 100) value of the second compound decreased by 2-fold or more when EPZ-5676 was added as compared to the DMSO control)”. The GI100 (MOLM-13 (MLL-AF9) cells [4]; Ras mutation status: None known, second compound, 72 h) was 0.53, the “Combination result with EPZ-5676, Retest” value [5, 9] was “Synergy (considered synergistic if the GI100 (Growth inhibition 100) value of the second compound decreased by 2-fold or more when EPZ-5676 was added as compared to the DMSO control)” and the “Result (combination with EPZ-5676)” value ([5]; NRAS Q61R (het)) was “Synergy (considered synergistic if the GI100 (Growth inhibition 100) value of the second compound decreased by 2-fold or more when EPZ-5676 was added as compared to the DMSO control)”. The GI50 ([5]; NRAS Q61R (het), second compound, 72 h) was 0.07 µM, the “Summary of Combination Studies: SKM-1” value (SKM-1 cells) was “Synergy (considered synergistic if the IC50 value of the second compound decreased by 2-fold or more when EPZ-5676 was added as compared to the DMSO control)” and the “Combination result with EPZ-5676, Primary screen” value [6] was “Synergy (considered synergistic if the GI100 (Growth inhibition 100) value of the second compound decreased by 2-fold or more when EPZ-5676 was added as compared to the DMSO control)”. For the same compound, the “Combination result with EPZ-5676, Primary screen” value (SKM-1 (non-MLLr) cells [7]) was “Synergy (considered synergistic if the GI100 (Growth inhibition 100) value of the second compound decreased by 2-fold or more when EPZ-5676 was added as compared to the DMSO control)”, the “Combination result with EPZ-5676, Primary screen” value (MOLM-13 (MLL-AF9) cells [8]) was “Synergy (considered synergistic if the GI100 (Growth inhibition 100) value of the second compound decreased by 2-fold or more when EPZ-5676 was added as compared to the DMSO control)” and the GI50 (THP-1 (MLL-AF9) cells) was 0.06 µM. The GI100 (THP-1 (MLL-AF9) cells) was greater than 10.
